Measurements taken from PubChem BioAssay (NCI).
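Growth conditions: 96-well plates. Treatment: test compound, 48 hours, 5 concentrations. Analysis: linear interpolation between bracketing concentrations; unreached endpoints set to highest concentration. Here, GI50 denotes the concentration required for 50% inhibition of growth. TGI marks complete inhibition of growth.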

Tests used:
Assay in all cases: inhibition of tumour cell growth, NCI panel, 48 h
786-0 renal = test system: 786-0 renal
A498 renal = test system: A498 renal
A549 NSCLC = test system: A549 NSCLC
ACHN renal = test system: ACHN renal
BT-549 breast = test system: BT-549 breast
CAKI-1 renal = test system: CAKI-1 renal
COLO 205 colon = test system: COLO 205 colon
DU-145 prostate = test system: DU-145 prostate
HCC-2998 colon = test system: HCC-2998 colon
HCT-116 colon = test system: HCT-116 colon
HCT-15 colon = test system: HCT-15 colon
HOP-62 NSCLC = test system: HOP-62 NSCLC
HOP-92 NSCLC = test system: HOP-92 NSCLC
HS 578T breast = test system: HS 578T breast
HT29 colon = test system: HT29 colon
IGROV1 ovarian = test system: IGROV1 ovarian
KM12 colon = test system: KM12 colon
LOX IMVI melanoma = test system: LOX IMVI melanoma
M14 melanoma = test system: M14 melanoma
MALME-3M melanoma = test system: MALME-3M melanoma
MCF7 breast = test system: MCF7 breast
MDA-MB-231 breast = test system: MDA-MB-231 breast
MDA-MB-435 = test system: MDA-MB-435
NCI-H226 lung = test system: NCI-H226 lung
NCI-H460 lung = test system: NCI-H460 lung
NCI-H522 lung = test system: NCI-H522 lung
NCI/ADR-RES ovarian = test system: NCI/ADR-RES ovarian
OVCAR-3 ovarian = test system: OVCAR-3 ovarian
OVCAR-4 ovarian = test system: OVCAR-4 ovarian
OVCAR-5 ovarian = test system: OVCAR-5 ovarian
OVCAR-8 ovarian = test system: OVCAR-8 ovarian
RPMI-8226 leukemia = test system: RPMI-8226 leukemia
RXF 393 renal = test system: RXF 393 renal
SF-268 CNS = test system: SF-268 CNS
SF-295 CNS = test system: SF-295 CNS
SF-539 CNS = test system: SF-539 CNS
SK-MEL-2 melanoma = test system: SK-MEL-2 melanoma
SK-MEL-28 melanoma = test system: SK-MEL-28 melanoma
SK-MEL-5 melanoma = test system: SK-MEL-5 melanoma
SK-OV-3 ovarian = test system: SK-OV-3 ovarian
SN12C renal = test system: SN12C renal
SNB-19 CNS = test system: SNB-19 CNS
SNB-75 CNS = test system: SNB-75 CNS
SR leukemia = test system: SR leukemia
SW-620 colon = test system: SW-620 colon
T-47D breast = test system: T-47D breast
TK-10 renal = test system: TK-10 renal
U251 CNS = test system: U251 CNS
UACC-257 melanoma = test system: UACC-257 melanoma
UO-31 renal = test system: UO-31 renal
CCRF-CEM leukemia = test system: CCRF-CEM leukemia
K-562 leukemia = test system: K-562 leukemia
MOLT-4 leukemia = test system: MOLT-4 leukemia
NCI-H23 lung = test system: NCI-H23 lung
PC-3 prostate = test system: PC-3 prostate
UACC-62 melanoma = test system: UACC-62 melanoma

ClC1=NC(Cl)C(Cl)=N/C1=N\c1ncn[nH]1 (centres undefined)
GI50 (786-0 renal): 3.41 µM
TGI (786-0 renal): 11.4 µM
GI50 (A498 renal): 17.8 µM
TGI (A498 renal): 33.4 µM
GI50 (A549 NSCLC): 17.1 µM
TGI (A549 NSCLC): 34.4 µM
GI50 (ACHN renal): 1.88 µM
TGI (ACHN renal): 3.48 µM
GI50 (BT-549 breast): 2.45 µM
TGI (BT-549 breast): 5.42 µM
GI50 (CAKI-1 renal): 1.78 µM
TGI (CAKI-1 renal): 3.32 µM
GI50 (COLO 205 colon): 2.28 µM
TGI (COLO 205 colon): 4.55 µM
GI50 (DU-145 prostate): 1.9 µM
TGI (DU-145 prostate): 3.43 µM
GI50 (HCC-2998 colon): 2.17 µM
TGI (HCC-2998 colon): 4.28 µM
GI50 (HCT-116 colon): 1.76 µM
TGI (HCT-116 colon): 3.48 µM
GI50 (HCT-15 colon): 1.95 µM
TGI (HCT-15 colon): 4.68 µM
GI50 (HOP-62 NSCLC): 2.3 µM
TGI (HOP-62 NSCLC): 5.11 µM
GI50 (HOP-92 NSCLC): 1.59 µM
TGI (HOP-92 NSCLC): 3.1 µM
GI50 (HS 578T breast): 14.3 µM
TGI (HS 578T breast): 61 µM
GI50 (HT29 colon): 2.03 µM
TGI (HT29 colon): 3.9 µM
GI50 (IGROV1 ovarian): 2.23 µM
TGI (IGROV1 ovarian): 4.63 µM
GI50 (KM12 colon): 2.27 µM
TGI (KM12 colon): 4.79 µM
GI50 (LOX IMVI melanoma): 1.89 µM
TGI (LOX IMVI melanoma): 3.72 µM
GI50 (M14 melanoma): 2.64 µM
TGI (M14 melanoma): 7.15 µM
GI50 (MALME-3M melanoma): 1.82 µM
TGI (MALME-3M melanoma): 3.7 µM
GI50 (MCF7 breast): 1.78 µM
TGI (MCF7 breast): 4.15 µM
GI50 (MDA-MB-231 breast): 1.79 µM
TGI (MDA-MB-231 breast): 3.55 µM
GI50 (MDA-MB-435): 2.24 µM
TGI (MDA-MB-435): 6.01 µM
GI50 (NCI-H226 lung): 3.27 µM
TGI (NCI-H226 lung): 15.9 µM
GI50 (NCI-H460 lung): 3.65 µM
TGI (NCI-H460 lung): 14.9 µM
GI50 (NCI-H522 lung): 1.68 µM
TGI (NCI-H522 lung): 3.55 µM
GI50 (NCI/ADR-RES ovarian): 3.15 µM
TGI (NCI/ADR-RES ovarian): 8.79 µM
GI50 (OVCAR-3 ovarian): 1.95 µM
TGI (OVCAR-3 ovarian): 3.4 µM
GI50 (OVCAR-4 ovarian): 1.89 µM
TGI (OVCAR-4 ovarian): 3.61 µM
GI50 (OVCAR-5 ovarian): 1.71 µM
TGI (OVCAR-5 ovarian): 3.27 µM
GI50 (OVCAR-8 ovarian): 2.27 µM
TGI (OVCAR-8 ovarian): 6.05 µM
GI50 (RPMI-8226 leukemia): 1.97 µM
TGI (RPMI-8226 leukemia): 4.43 µM
GI50 (RXF 393 renal): 1.71 µM
TGI (RXF 393 renal): 3.2 µM
GI50 (SF-268 CNS): 2.24 µM
TGI (SF-268 CNS): 5.22 µM
GI50 (SF-295 CNS): 13.4 µM
TGI (SF-295 CNS): 28.5 µM
GI50 (SF-539 CNS): 2.22 µM
TGI (SF-539 CNS): 5.6 µM
GI50 (SK-MEL-2 melanoma): 2.61 µM
TGI (SK-MEL-2 melanoma): 5.63 µM
GI50 (SK-MEL-28 melanoma): 1.95 µM
TGI (SK-MEL-28 melanoma): 4.04 µM
GI50 (SK-MEL-5 melanoma): 5.57 µM
TGI (SK-MEL-5 melanoma): 18.7 µM
GI50 (SK-OV-3 ovarian): 15.5 µM
TGI (SK-OV-3 ovarian): 29 µM
GI50 (SN12C renal): 1.76 µM
TGI (SN12C renal): 3.31 µM
GI50 (SNB-19 CNS): 11.8 µM
TGI (SNB-19 CNS): 25.4 µM
GI50 (SNB-75 CNS): 5.64 µM
TGI (SNB-75 CNS): 20.7 µM
GI50 (SR leukemia): 1.3 µM
TGI (SR leukemia): 3.63 µM
GI50 (SW-620 colon): 2.06 µM
TGI (SW-620 colon): 4.3 µM
GI50 (T-47D breast): 1.9 µM
TGI (T-47D breast): 3.91 µM
GI50 (TK-10 renal): 1.92 µM
TGI (TK-10 renal): 3.44 µM
GI50 (U251 CNS): 4.88 µM
TGI (U251 CNS): 17 µM
GI50 (UACC-257 melanoma): 1.7 µM
TGI (UACC-257 melanoma): 4.25 µM
GI50 (UO-31 renal): 1.68 µM
TGI (UO-31 renal): 3.25 µM

N#Cc1cccc(/C=C(/C(=O)c2ccccc2)c2ccccc2)c1
GI50 (786-0 renal): 6.73 µM
TGI (786-0 renal): 23.8 µM
GI50 (A498 renal): 4.08 µM
TGI (A498 renal): 17.2 µM
GI50 (A549 NSCLC): 10.8 µM
TGI (A549 NSCLC): 47.6 µM
GI50 (ACHN renal): 2.47 µM
TGI (ACHN renal): 5.76 µM
GI50 (BT-549 breast): 4.16 µM
TGI (BT-549 breast): 15.1 µM
GI50 (CAKI-1 renal): 3.92 µM
TGI (CAKI-1 renal): 16.1 µM
GI50 (CCRF-CEM leukemia): 2.56 µM
TGI (CCRF-CEM leukemia): 12.8 µM
GI50 (COLO 205 colon): 5.3 µM
TGI (COLO 205 colon): 20 µM
GI50 (DU-145 prostate): 3.36 µM
TGI (DU-145 prostate): 10.2 µM
GI50 (HCC-2998 colon): 3.15 µM
TGI (HCC-2998 colon): 9.35 µM
GI50 (HCT-116 colon): 3.06 µM
TGI (HCT-116 colon): 11.3 µM
GI50 (HCT-15 colon): 3.4 µM
TGI (HCT-15 colon): 22.8 µM
GI50 (HOP-62 NSCLC): 3.99 µM
TGI (HOP-62 NSCLC): 13.5 µM
GI50 (HOP-92 NSCLC): 2.6 µM
GI50 (HS 578T breast): 2.9 µM
TGI (HS 578T breast): 33.6 µM
GI50 (HT29 colon): 4.23 µM
TGI (HT29 colon): 15 µM
GI50 (IGROV1 ovarian): 4.27 µM
TGI (IGROV1 ovarian): 25.3 µM
GI50 (K-562 leukemia): 3.52 µM
TGI (K-562 leukemia): 23.6 µM
GI50 (KM12 colon): 3.31 µM
TGI (KM12 colon): 11.6 µM
GI50 (LOX IMVI melanoma): 2.89 µM
TGI (LOX IMVI melanoma): 10.2 µM
GI50 (M14 melanoma): 4.05 µM
TGI (M14 melanoma): 20.8 µM
GI50 (MALME-3M melanoma): 9.61 µM
TGI (MALME-3M melanoma): 27.8 µM
GI50 (MCF7 breast): 3.85 µM
TGI (MCF7 breast): 15.9 µM
GI50 (MDA-MB-231 breast): 4.25 µM
TGI (MDA-MB-231 breast): > 100 µM
GI50 (MDA-MB-435): 3 µM
TGI (MDA-MB-435): 11 µM
GI50 (MOLT-4 leukemia): 3.19 µM
TGI (MOLT-4 leukemia): 23.4 µM
GI50 (NCI-H226 lung): 6.45 µM
TGI (NCI-H226 lung): 26.7 µM
GI50 (NCI-H23 lung): 3.52 µM
TGI (NCI-H23 lung): 17.1 µM
GI50 (NCI-H460 lung): 3.85 µM
TGI (NCI-H460 lung): 19.6 µM
GI50 (NCI-H522 lung): 2.35 µM
TGI (NCI-H522 lung): 6.95 µM
GI50 (NCI/ADR-RES ovarian): 3.62 µM
TGI (NCI/ADR-RES ovarian): > 100 µM
GI50 (OVCAR-3 ovarian): 3.63 µM
TGI (OVCAR-3 ovarian): 11.8 µM
GI50 (OVCAR-4 ovarian): 6.35 µM
TGI (OVCAR-4 ovarian): 20.3 µM
GI50 (OVCAR-5 ovarian): 11.9 µM
TGI (OVCAR-5 ovarian): 29.1 µM
GI50 (OVCAR-8 ovarian): 2.97 µM
TGI (OVCAR-8 ovarian): 25.5 µM
GI50 (PC-3 prostate): 6.27 µM
TGI (PC-3 prostate): 36.6 µM
GI50 (RPMI-8226 leukemia): 2.82 µM
TGI (RPMI-8226 leukemia): 9.27 µM
GI50 (RXF 393 renal): 3.72 µM
TGI (RXF 393 renal): 10.8 µM
GI50 (SF-268 CNS): 4.3 µM
TGI (SF-268 CNS): 17.2 µM
GI50 (SF-295 CNS): 4.23 µM
TGI (SF-295 CNS): 17.1 µM
GI50 (SF-539 CNS): 5.55 µM
TGI (SF-539 CNS): 18.4 µM
GI50 (SK-MEL-28 melanoma): 5.35 µM
TGI (SK-MEL-28 melanoma): 19.1 µM
GI50 (SK-MEL-5 melanoma): 4.04 µM
TGI (SK-MEL-5 melanoma): 15.6 µM
GI50 (SK-OV-3 ovarian): 5.53 µM
TGI (SK-OV-3 ovarian): 20.8 µM
GI50 (SN12C renal): 3.85 µM
TGI (SN12C renal): 25.9 µM
GI50 (SNB-19 CNS): 5.07 µM
TGI (SNB-19 CNS): 19.9 µM
GI50 (SNB-75 CNS): 4.69 µM
TGI (SNB-75 CNS): 17.5 µM
GI50 (SR leukemia): 2.94 µM
TGI (SR leukemia): > 100 µM
GI50 (SW-620 colon): 3.28 µM
TGI (SW-620 colon): 15.5 µM
GI50 (T-47D breast): 3.78 µM
TGI (T-47D breast): 17.3 µM
GI50 (TK-10 renal): 5.75 µM
TGI (TK-10 renal): 19.9 µM
GI50 (U251 CNS): 3.43 µM
TGI (U251 CNS): 12.5 µM
GI50 (UACC-257 melanoma): 4.05 µM
TGI (UACC-257 melanoma): 18.2 µM
GI50 (UACC-62 melanoma): 4.1 µM
TGI (UACC-62 melanoma): 24.6 µM
GI50 (UO-31 renal): 5.31 µM
TGI (UO-31 renal): 19 µM
